Measurements as given in patent US10919859B2, “Benzylaminopyridylcyclopropanecarboxylic acids, pharmaceutical compositions and uses thereof” (Boehringer Ingelheim International GmbH, priority 2017, dated 2021).
In brackets after ≈: the same amount, converted by molar mass.

Key:
human GPR40 receptor = human GPR40 receptor (Homo sapiens (Human), UniProt O14842); assay: IP1 accumulation measurements using the IPOne assay system; assay type: cell-based; settings: 1321N1 cells stably expressing human GPR40, 1 h at 37° C.
Sequence of human GPR40 receptor (O14842 whole entry): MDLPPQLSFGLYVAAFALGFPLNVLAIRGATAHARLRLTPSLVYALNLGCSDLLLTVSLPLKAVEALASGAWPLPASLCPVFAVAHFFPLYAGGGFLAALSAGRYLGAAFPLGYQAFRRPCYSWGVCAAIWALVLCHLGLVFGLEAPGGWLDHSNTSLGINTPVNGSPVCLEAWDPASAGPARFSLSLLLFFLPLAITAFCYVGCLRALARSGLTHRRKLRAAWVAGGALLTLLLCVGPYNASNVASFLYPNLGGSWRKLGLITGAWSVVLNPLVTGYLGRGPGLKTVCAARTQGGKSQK
Procedure: IP1 accumulation measurements using the IPOne assay system—1321N1 cells stably expressing human GPR40 receptor (Euroscreen, Belgium) are seeded 24 h before the assay in white 384-well plates in culture medium containing 10% FCS, 1% Na-Pyruvate and 400 μg/mL G418. IP1 is assayed according to the manufacturer's description (Cisbio Bioassays, France). In brief, the assay is started by substitution of the culture medium by stimulation buffer (Hepes 10 mM, CaCl2 1 mM, MgCl2 0.5 mM, KCl 4.2 mM, NaCl 146 mM, glucose 5.5 mM and LiCl 50 mM, pH 7.4). Cells are stimulated for 1 h at 37° C., 5% CO2 by addition of the compounds that are diluted in stimulation buffer containing LiCl. Assays are stopped by adding HTRF-conjugates (IP1-d2 and Anti-IP1 cryptate Tb) and lysis buffer, provided by the manufacturer. After an incubation time of 1 h at room temperature plates are measured using an EnVision™, Perkin Elmer. The obtained fluorescence ratios at 665/615 […] are then used to calculate the pEC50 values using Assay Explorer 3.3 Software (Accelrys, Inc.) by interpolation using an IP1 reference curve and subsequent sigmoidal curve fitting allowing for a variable hill slope.

[1] = Aqueous solubility (buffer vs acetonitrile/water, LC-UV); assay type: physicochemical; settings: for solubility at 24 h: aqueous buffer, kinetic from dmso stock
Procedure: The aqueous solubility of the compounds of the invention is determined by comparing the amount dissolved in buffer to the amount in an acetonitrile/water (1/1) solution. Starting from a 10 mM DMSO stock solution aliquots are diluted with acetonitrile/water (1/1) or buffer, respectively. After 24 h of shaking, the solutions are filtrated and analyzed by LC-UV. The amount dissolved in buffer is compared to the amount in the acetonitrile solution.

[2] = pH 2.2 buffer, 24 h shaking, 2.5% DMSO, examples in this invention
[3] = pH 2.2 buffer, 24 h shaking, 2.5% DMSO, reference examples of WO 2013/178575

Row | SMILES | EC50 (human GPR40 receptor) | solubility at 24 h [1, 2] | Solubility at pH value 2.2 ([1]; pH 2.2) | Solubility at pH value 2.2 [1, 2] | solubility at 24 h [1, 3]
1 | COc1ccc(-c2ccc(-c3cc(CNc4ccc([C@H]5C[C@@H]5C(=O)O)nc4)c(F)cc3F)cc2)nc1 [Example 7, (1S,2S)-2-(5-{[4,6-Difluoro-4′-(5-methoxy-pyridin-2-yl)-biphenyl-3-ylmethyl]-amino}-pyridin-2-yl)-cyclopropanecarboxylic acid] | 27 nM | 77 µg/mL (≈ 158 µM) |  |  | 
2 | Cc1cc(OC2CCOCC2)cc(C)c1-c1ccc(F)c(CNc2ccc([C@H]3C[C@@H]3C(=O)O)nc2)c1 [Example 20] | 35 nM |  | 66 μg/mL |  | 
3 | O=C(O)[C@H]1C[C@@H]1c1ccc(NCc2cc(-c3c(F)cc(F)cc3F)ccc2F)cn1 [Example 23] | 505 nM |  | 53 μg/mL |  | 
4 | Cc1cc(C(=O)N(C)C)cc(C)c1-c1ccc(F)c(CNc2ccc([C@H]3C[C@@H]3C(=O)O)nc2)c1 [Example 42] | 231 nM |  | 71 μg/mL |  | 
5 | Cc1ccc(Cl)c(-c2ccc(F)c(CNc3ccc([C@H]4C[C@@H]4C(=O)O)nc3)c2)c1Cl [Example 36] | 35 nM |  | 43 μg/mL |  | 
6 | Cc1cc(OCC2(O)CCOCC2)cc(C)c1-c1ccc(F)c(CNc2ccc([C@H]3C[C@@H]3C(=O)O)nc2)c1 [Example 49] | 147 nM |  | 83 μg/mL |  | 
7 | Cc1cc(-c2ccn(C)c(=O)c2)cc(C)c1-c1ccc(F)c(CNc2ccc([C@H]3C[C@@H]3C(=O)O)nc2)c1 [Example 17] | 18 nM |  | 73 μg/mL |  | 
8 | Cc1cc(OCC(=O)O)cc(C)c1-c1ccc(F)c(CNc2ccc([C@H]3C[C@@H]3C(=O)O)nc2)c1 [Example 14] | 4520 nM |  | 71 μg/mL |  | 
9 | Cc1cc(O[C@@H]2CCOC2)cc(C)c1-c1ccc(F)c(CNc2ccc([C@H]3C[C@@H]3C(=O)O)nc2)c1 [Example 24] | 44 nM |  | 64 μg/mL |  | 
10 | Cc1cc(-c2ccn(C)c(=O)n2)cc(C)c1-c1ccc(F)c(CNc2ccc([C@H]3C[C@@H]3C(=O)O)nc2)c1 [Example 56] | 32 nM |  |  | 86 μg/mL | 
11 | Cc1cc(C#N)cc(C)c1-c1ccc(F)c(CNc2ccc([C@H]3C[C@@H]3C(=O)O)nc2)c1 [Example 57] | 91 nM |  | 59 μg/mL |  | 
12 | Nc1cc(F)c(-c2ccc(F)c(CNc3ccc([C@H]4C[C@@H]4C(=O)O)nc3)c2)c(F)c1 [Example 34] | 1450 nM |  | 79 μg/mL |  | 
13 | Cc1cc(-c2nnn(C)n2)cc(C)c1-c1ccc(F)c(CNc2ccc([C@H]3C[C@@H]3C(=O)O)nc2)c1 [Example 11] | 8 nM |  | 56 μg/mL |  | 
14 | COc1cc(OC)c(-c2ccc(F)c(CNc3ccc([C@H]4C[C@@H]4C(=O)O)nc3)c2)c(OC)c1 [Example 31] | 453 nM |  | 88 μg/mL |  | 
15 | CC(C)(O)CCOc1ccc(-c2cc(CNc3ccc([C@H]4C[C@@H]4C(=O)O)nc3)ccc2C(F)(F)F)cc1 [Example 2, (1S,2S)-2-(5-{[4′-(3-Hydroxy-3-methyl-butoxy)-6-trifluoromethyl-biphenyl-3-ylmethyl]-amino}-pyridin-2-yl)-cyclopropanecarboxylic acid] | 17 nM | 72 µg/mL (≈ 140 µM) |  |  | 
16 | Cc1c(C#N)cccc1-c1ccc(F)c2c1CC[C@H]2Oc1ccc([C@H]2C[C@@H]2C(=O)O)cc1 [WO 2013/178575 Example 54, reference compound] |  |  |  |  | < 1 µg/mL
17 | Cc1cc(C(=O)NCC(C)(C)O)cc(C)c1-c1ccc(F)c2c1CC[C@H]2Oc1ccc([C@H]2C[C@@H]2C(=O)O)cc1 [WO 2013/178575 Example 15, reference compound] |  |  |  |  | < 1 µg/mL
18 | Cc1cc(-c2nnn(C)n2)cc(C)c1-c1ccc(F)c2c1CC[C@H]2Oc1ccc([C@H]2C[C@@H]2C(=O)O)cc1 [WO 2013/178575 Example 45, reference compound] |  |  |  |  | < 1 µg/mL
19 | Cc1cc(OCCC(C)(C)O)cc(C)c1-c1ccc(F)c2c1CC[C@H]2Oc1ccc([C@H]2C[C@@H]2C(=O)O)cc1 [WO 2013/178575 Example 17, reference compound] |  |  |  |  | < 1 µg/mL
